The target of assay [1] is LZK (Homo sapiens (Human), UniProt O43283). Briefly: LZK biochemical assay (TR-FRET, MKK7 phosphorylation). The method, then:
LZK assay is a biochemical assay format designed to screen for inhibitors of LZK. Enzymatic activity of LZK was measured by monitoring phosphorylation of the physiological substrate MKK7 (MAP2K7, Dual specificity mitogen-activated protein kinase kinase 7). Phosphorylation was detected by a TR-FRET system whereby His-tagged MKK7 was labeled by a XL665-labeled anti-His antibody (FRET acceptor, emission 665 nm). LZK phosphorylates MKK7 at T275/S277 which were detected by an Eu-labeled anti-phospho-MKK7 (T275/S277) antibody (FRET donor, excitation 340 nm). Phosphorylation of MKK7 results in an increased TR-FRET signal (Ratio XL665-channel/Eu-channel) and inhibition of enzymatic activity of LZK decreases the TR-FRET signal.
Assay Protocol for 384 low volume MTP format: 1 μl of test compound was pipetted into test plate; +5 μl LZK solution (10 nM LZK, catalytic domain, Carna Biosiences in assay buffer); +5 μl substrate solution (15 nM MKK7, LDB; 15 μM ATP, in assay buffer); 90 min incubation at RT; +5 μl detection mix (20 nM XL665-labeled anti-His antibody, Cisbio; 0.4 nM Eu-labeled anti-phospho-MKK7 (T275/S277), Cisbio/Millipore in detection buffer), 16 h incubation at 32° C.; endpoint measurement BMG (HTRF).
(§1) All indicated concentrations final concentrations.
Assay buffer (384 format): 50 mM Hepes pH 7.5, 10 mM MgCl2, 1 mM EGTA, 1 mM DTT, 0.01% Triton X-100, 0.01% BSA, 1:500 Smart Block.
(§2) Detection buffer: 25 mM Tris/HCl pH 7.5, 100 mM EDTA, 100 mM NaCl, 200 mM KF, 0.01% Tween 20, 1:500 Smart Block.

In assay [2] the target is DLK (Homo sapiens (Human), UniProt Q12852). Briefly: DLK biochemical assay (TR-FRET, MKK7 phosphorylation). The procedure:
DLK assay is a biochemical assay format designed to screen for inhibitors of DLK. Enzymatic activity of DLK was measured by monitoring phosphorylation of the physiological substrate MKK7 (MAP2K7, Dual specificity mitogen-activated protein kinase kinase 7). Phosphorylation was detected by a TR-FRET system whereby His-tagged MKK7 was labeled by a XL665-labeled anti-His antibody (FRET acceptor, emission 665 nm). DLK phosphorylates MKK7 at T275/S277, which was detected by an Eu-labeled anti-phospho-MKK7 (T275/S277) antibody (F RET donor, excitation 340 nm). Phosphorylation of MKK7 results in an increased TR-FRET signal (Ratio XL665-channel/Eu-channel) and inhibition of enzymatic activity of DLK decreases the TR-FRET signal.
Assay Protocol for 1536 MTP format: test compounds were predispensed (60 nl) in test plates; +3 μl DLK solution (10 nM DLK, catalytic domain, Carna Biosiences, 0.6 mM DTT in assay buffer); +2 μl substrate solution (15 nM MKK7, LDB; 60 μM ATP; 0.4 mM DTT in assay buffer); 90 min incubation at RT; +2 μl detection mix (5 nM XL665-labeled anti-His antibody, Cisbio; 0.1 nM Eu-labeled anti-phospho-MKK7 (T275/S277), Cisbio/Millipore in detection buffer); 16 h incubation at 37° C.; endpoint measurement BMG (HTRF).
Assay Protocol for 384 low volume MTP format: 1 μl of test compounds were pipetted into test plate; +5 μl DLK solution (10 nM DLK, catalytic domain, Carna Biosiences in assay buffer); +5 μl substrate solution (15 nM MKK7, LDB; 60 μM ATP, in assay buffer); 90 min incubation at RT; +9 μl detection mix (20 nM XL665-labeled anti-His antibody, Cisbio; 0.4 nM Eu-labeled anti-phospho-MKK7 (T275/S277), Cisbio/Millipore in detection buffer); 16 h incubation at 4° C.; endpoint measurement BMG (HTRF).
as §1
Assay buffer (384 format): 50 mM Hepes pH 7.5, 10 mM MgCl2, 1 mM EGTA, 1 mM DTT, 0,01% Triton X-100, 0.01% BSA, 1:500 Smart Block.
as §2
On the technique in general: In TR-FRET formats the signal depends on donor and acceptor labels being close together.

A word on the pIC50: it is the IC50 on a negative log10 scale, so that one unit is a factor of ten.

pIC50: −log10 of the molar value. A value given as a limit tells only on which side of the number the result lay.

DLK, sequence (Q12852 1-520): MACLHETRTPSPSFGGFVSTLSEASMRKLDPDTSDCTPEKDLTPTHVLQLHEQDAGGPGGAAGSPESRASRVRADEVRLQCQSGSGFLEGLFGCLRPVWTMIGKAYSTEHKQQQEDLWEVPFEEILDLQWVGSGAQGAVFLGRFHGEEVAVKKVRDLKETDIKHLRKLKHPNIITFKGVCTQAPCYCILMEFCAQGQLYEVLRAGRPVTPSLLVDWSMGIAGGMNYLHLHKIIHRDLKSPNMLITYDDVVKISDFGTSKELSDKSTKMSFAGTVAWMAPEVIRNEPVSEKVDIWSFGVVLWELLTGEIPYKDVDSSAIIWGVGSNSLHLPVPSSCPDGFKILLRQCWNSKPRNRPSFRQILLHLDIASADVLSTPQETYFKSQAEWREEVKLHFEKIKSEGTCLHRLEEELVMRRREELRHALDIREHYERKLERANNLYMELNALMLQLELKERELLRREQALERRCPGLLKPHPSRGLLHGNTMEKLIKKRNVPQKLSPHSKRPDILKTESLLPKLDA
LZK, sequence (O43283 168-409): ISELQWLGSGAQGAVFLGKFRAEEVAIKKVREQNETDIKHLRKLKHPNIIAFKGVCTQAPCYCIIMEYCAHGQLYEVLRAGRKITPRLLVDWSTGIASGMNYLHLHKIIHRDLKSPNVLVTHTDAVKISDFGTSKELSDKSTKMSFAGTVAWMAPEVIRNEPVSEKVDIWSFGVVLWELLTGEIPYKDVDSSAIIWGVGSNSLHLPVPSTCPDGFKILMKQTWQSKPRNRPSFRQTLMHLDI

On to `CC[C@H](C)NC(=O)c1cc(-c2csc(C(=O)N[C@@H](C)c3ccccc3)c2)cn2nc(N)nc12` [Compound 88], for which the figures for the negative logarithm of the IC50 (pIC50) in assay [1] and in assay [2] were 7.43 and 8.49, respectively.
Take `C[C@@H](NC(=O)c1cc(-c2ccc3nc(N)nn3c2)cs1)c1cccc(Cl)c1` [Compound 267]: the pIC50 in assay [1] was under 4.52; in assay [2], 6.59.
Consider `Cc1cccc(C)c1NC(=O)c1cc(-c2ccc3nc(N)nn3c2)cs1` [Compound 233], for which the negative-log IC50 (pIC50) in assay [1] is 4.77; in assay [2] it was 6.36.
For the compound `Nc1nc2c(F)cc(-c3csc(C(=O)NCc4ccc(F)cc4)c3)cn2n1` [Compound 382], the results for the negative-log IC50 (pIC50) in assay [1] and in assay [2] were under 4.52 and 6.51, respectively.
For `COCCOc1cccc(CNC(=O)c2cc(-c3ccc4nc(N)nn4c3)cs2)c1` [Compound 292], in that order: 4.72 and 5.92.
On to `CC(C)c1csc(CNC(=O)c2cc(-c3ccc4nc(N)nn4c3)cs2)n1` [Compound 249], for which the pIC50 in assay [1] was 5.12; in assay [2] it was 6.13.
In the case of `Nc1nc2ccc(-c3csc(C(=O)NCc4cccc(F)c4)c3)cn2n1` [Compound 216], the pIC50 in assay [1] is 5.23; in assay [2] it was 5.94.
In the case of `Nc1nc2ccc(-c3csc(C(=O)NCc4cccc(Cl)c4)c3)cn2n1` [Compound 193], the values for the pIC50 in assay [1] and in assay [2] were 5.30 and 6.21, respectively.
With `CCNC(=O)c1cc(-c2ccc3nc(N)nn3c2)cs1` [Compound 270], the pIC50 in assay [1] is under 4.52; in assay [2] it was 5.46.
With `Nc1nc2ccc(-c3csc(C(=O)Nc4ccccc4Cl)c3)cn2n1` [Compound 224], the values for the pIC50 in assay [1] and in assay [2] were under 4.52 and 5.78, respectively.
For `CCC(NC(=O)c1cc(-c2ccc3nc(N)nn3c2)cs1)c1ccc(F)cc1` (stereo not drawn) [Compound 338] the same measures were under 4.52 and 6.72.
For `CC[C@H](C)NC(=O)c1cc(-c2csc(C(=O)NCc3ccc(F)cc3)c2)cn2nc(N)nc12` [Compound 93], in that order: 7.39 and 7.96.
With `Nc1nc2ccc(-c3csc(C(=O)NCCc4ccccc4)c3)cn2n1` [Compound 211], the pIC50 in assay [1] was 4.74; in assay [2], 6.01.
For `COc1cccc(CNC(=O)c2cc(-c3cc(C(=O)NC(C)(C)C)c4nc(N)nn4c3)cs2)c1` [Compound 13], the pIC50 in assay [1] is 6.85; in assay [2] it was 7.47.
With `CC(C)NC(=O)c1cc(-c2csc(C(=O)N[C@@H](C)c3ccc(OC(F)(F)F)cc3)c2)cn2nc(N)nc12` [Compound 118], the pIC50 in assay [1] was 5.28; in assay [2] it was 6.68.
Turning to `CC(C)NC(=O)c1cc(-c2csc(C(=O)NCc3ccc(F)cc3)c2)cc2nc(N)nn12` [Compound 145], the pIC50 in assay [1] was 6.91; in assay [2] it was 7.52.
For `Nc1nc2ccc(-c3csc(C(=O)NCc4ccccc4Cl)c3)cn2n1` [Compound 219] the same measures were 5.51 and 6.30.
Turning to `CC[C@H](C)NC(=O)c1cc(-c2csc(C(=O)N[C@H]3CCOc4ccccc43)c2)cn2nc(N)nc12` [Compound 144-3], the pIC50 in assay [1] is 7.37; in assay [2], 8.14.
Consider `CCc1nnc(-c2cc(-c3csc(C(=O)NCc4ccc(F)cc4)c3)cn3nc(N)nc23)o1` [Compound 395], for which the results for the pIC50 in assay [1] and in assay [2] were 5.44 and 5.96, respectively.
Turning to `CN1CCCC(NC(=O)c2cc(-c3ccc4nc(N)nn4c3)cs2)C1` (stereo not drawn) [Compound 181], the values for the pIC50 in assay [1] and in assay [2] were under 4.52 and 5.46, respectively.
Turning to `CC[C@@H](C)NC(=O)c1cc(-c2csc(C(=O)N[C@@H](CC)c3ccc(F)cc3)c2)cn2nc(N)nc12` [Compound 144], the values for the pIC50 in assay [1] and in assay [2] were 6.11 and 7.42, respectively.
For `Cc1sc(C(=O)NCc2ccc(F)cc2)cc1-c1ccc2nc(N)nn2c1` [Compound 305] the same measures were under 4.52 and under 4.52.
Consider `Nc1nc2ccc(-c3csc(C(=O)NCc4ccco4)c3)cn2n1` [Compound 275], for which the pIC50 in assay [1] was 4.80; in assay [2], 6.20.
For `Nc1nc2ccc(-c3csc(C(=O)NCc4cnc(Cl)s4)c3)cn2n1` [Compound 250], in that order: 5.35 and 6.03.
As to `Nc1nc2ccc(-c3csc(C(=O)NC4CCCC(C(F)(F)F)C4)c3)cn2n1` (stereo not drawn) [Compound 176], the negative-log IC50 (pIC50) in assay [1] was under 4.52; in assay [2], 6.00.
For `COc1cccc(C2(NC(=O)c3cc(-c4ccc5nc(N)nn5c4)cs3)CC2)c1` [Compound 291], the negative logarithm of the IC50 (pIC50) was 4.85 in assay [1] and 6.15 in assay [2].
On to `COc1cccc(CCNC(=O)c2cc(-c3ccc4nc(N)nn4c3)cs2)c1` [Compound 282], for which the results for the negative-log IC50 (pIC50) in assay [1] and in assay [2] were under 4.52 and 6.12, respectively.
Turning to `CC(C)(C)NC(=O)c1cc(-c2csc(C(=O)NC3CCCCC3)c2)cn2nc(N)nc12` [Compound 14], the results for the pIC50 in assay [1] and in assay [2] were 6.57 and 7.47, respectively.
Consider `Cc1cccc(CNC(=O)c2cc(-c3ccc4nc(N)nn4c3)cs2)c1C` [Compound 223], for which the values for the negative-log IC50 (pIC50) in assay [1] and in assay [2] were 4.64 and 6.19, respectively.
As to `CC[C@H](NC(=O)c1cc(-c2cc(C(=O)N[C@@H](C)CC)n3nc(N)nc3c2)cs1)c1ccc(F)cc1` [Compound 156], the pIC50 was 7.10 in assay [1] and 8.12 in assay [2].
For `CCNC(=O)c1cc(-c2csc(C(=O)NCc3ccccc3)c2)cn2nc(N)nc12` [Compound 5] the same measures were 5.92 and 6.80.
For `COC[C@H](NC(=O)c1cc(-c2ccc3nc(N)nn3c2)cs1)c1ccccc1` [Compound 322], the pIC50 in assay [1] was 5.85; in assay [2] it was 6.92.
With `COC[C@H](C)NC(=O)c1cc(-c2ccc3nc(N)nn3c2)cs1` [Compound 339], the pIC50 in assay [1] is under 4.52; in assay [2] it was 5.64.
As to `CC[C@H](NC(=O)c1cc(-c2cc(C(=O)N[C@H]3CCOC3)c3nc(N)nn3c2)cs1)c1ccc(F)cc1` [Compound 115], the pIC50 in assay [1] was 7.39; in assay [2] it was 8.89.
Turning to `C[C@@H](CO)NC(=O)c1cc(-c2csc(C(=O)NCc3ccc(F)cc3)c2)cn2nc(N)nc12` [Compound 30], the values for the negative logarithm of the IC50 (pIC50) in assay [1] and in assay [2] were 7.35 and 7.80, respectively.
For `CC[C@@H](NC(=O)c1cc(-c2csc(C(=O)NCc3ccc(F)cc3)c2)cn2nc(N)nc12)C(F)(F)F` [Compound 126], the pIC50 was 5.47 in assay [1] and 6.01 in assay [2].
In the case of `C[C@H](NC(=O)c1cc(-c2cc(C(=O)N[C@H]3CCOC3)c3nc(N)nn3c2)cs1)c1ccc(F)cc1` [Compound 98], the values for the pIC50 in assay [1] and in assay [2] were 7.22 and 8.12, respectively.
Turning to `CN1CCO[C@H](CNC(=O)c2cc(-c3ccc4nc(N)nn4c3)cs2)C1` [Compound 214], the pIC50 is 4.60 in assay [1] and 5.76 in assay [2].
For the compound `COc1cc(CNC(=O)c2cc(-c3ccc4nc(N)nn4c3)cs2)cc(OC)c1` [Compound 238], the pIC50 in assay [1] was under 4.52; in assay [2], 6.57.
Regarding `Nc1nc2ccc(-c3csc(C(=O)NCc4ccc(OCCN5CCOCC5)cc4)c3)cn2n1` [Compound 281], the pIC50 is under 4.52 in assay [1] and 5.82 in assay [2].
With `CCOc1cccc(CNC(=O)c2cc(-c3ccc4nc(N)nn4c3)cs2)c1` [Compound 191], the pIC50 in assay [1] was under 4.52; in assay [2], 6.49.
In the case of `Cn1cnc(CNC(=O)c2cc(-c3ccc4nc(N)nn4c3)cs2)c1` [Compound 251], the pIC50 was 5.04 in assay [1] and 5.71 in assay [2].

The values are drawn from patent US20230382904A1, “SUBSTITUTED 4-([1,2,4]TRIAZOLO[1,5-a]PYRIDIN-6-YL)THIOPHENE-2-CARBOXAMIDE DERIVATIVES AND USE THEREOF” (The Johns Hopkins University, priority 2020, published 2023).
